# Results taken from EPA's ToxRefDB 2.
# Assays:
# rat [1] = settings: Prenatal developmental toxicity study, sprague dawley, Inhalation, Whole-Body, dose end: 20 GD
# rat [2] = settings: Subchronic oral toxicity in rodents; wistar; Inhalation; Whole-Body; dose end: 90 day; group: systemic; systemic / clinical chemistry / alkaline phosphatase (alp/alk) / alkaline phosphatase (alp/alk) + systemic / clinical chemistry / lactic …
# mouse [3] = settings: Chronic toxicity, b6c3f1, Oral, Water, dose end: 104 week, group: systemic
# mouse [4] = settings: Subchronic oral toxicity in rodents, b6c3f1, Water, dose end: 13 week, group: systemic
# rat [5] = settings: Subchronic oral toxicity in rodents, fischer, Water, dose end: 25 week, group: systemic, systemic / in life observation / body weight / body weight gain
# rat [6] = settings: Chronic toxicity; fischer; Oral; Water; dose end: 104 week; group: systemic; systemic / pathology microscopic / mammary gland / fibroadenoma
# rat [7] = settings: Sub-acute repeat dose toxicity; wistar; Injection; Intravenous; dose end: 28 day; group: systemic; systemic / clinical chemistry / calcium / calcium
# mouse [8] = settings: Combined chronic toxicity/carcinogenicity, cd1, Oral, Feed, dose end: 104 week, group: systemic
# dog [9] = settings: Subchronic oral toxicity in nonrodent, beagle, Capsule, dose end: 26 week, group: systemic
# rat [10] = settings: Multigenerational reproductive toxicity study, wistar, Oral, Feed, dose end: 3 generation
# rat [11] = settings: Combined chronic toxicity/carcinogenicity; sprague dawley; Oral; Feed; dose end: 2 year; group: systemic; systemic / in life observation / body weight / body weight + systemic / in life observation / food consumption / food consumption
# rat [12] = settings: Subchronic oral toxicity in rodents, wistar, [Not Specified], dose end: 13 week, group: systemic
# rat [13] = settings: Prenatal developmental toxicity study, sprague dawley, Oral, Gavage/Intubation, dose end: 19 GD
# rat [14] = settings: Subchronic oral toxicity in rodents, other, Feed, dose end: 13 week, group: systemic
# rat [15] = settings: Combined chronic toxicity/carcinogenicity; sprague dawley; Oral; Feed; dose end: 24 month; group: systemic; systemic / in life observation / body weight / body weight gain
# dog [16] = settings: Subchronic oral toxicity in nonrodent, beagle, Feed, dose end: 26 week, group: systemic
# mouse [17] = settings: Carcinogenicity, cd1, Oral, Feed, dose end: 24 month, group: systemic
# mouse [18] = settings: Combined chronic toxicity/carcinogenicity; other; Oral; Feed; dose end: 365 day; group: systemic; systemic / pathology microscopic / blood / lymphoma malignant
# rat [19] = settings: Combined chronic toxicity/carcinogenicity; fischer; Oral; Feed; dose end: 365 day; group: systemic; systemic / in life observation / body weight / body weight
# rat [20] = settings: Subchronic oral toxicity in rodents, sprague dawley, Feed, dose end: 90 day
# mouse [21] = settings: Carcinogenicity; cd1; Oral; Feed; dose end: 18 month; group: systemic; systemic / in life observation / body weight / body weight + systemic / in life observation / mortality / mortality
# dog [22] = settings: Chronic toxicity, beagle, Oral, Feed, dose end: 52 week
# rat [23] = settings: Prenatal developmental toxicity study, other, Oral, Gavage/Intubation, dose end: 16 GD
# rat [24] = settings: Multigenerational reproductive toxicity study, sprague dawley, Oral, Feed, dose end: 2 generation
# [25] = group: developmental, systemic / in life observation / body weight / fetal weight
# [26] = group: maternal, systemic / in life observation / body weight / body weight gain + systemic / in life observation / food consumption / food consumption
# [27] = systemic / pathology microscopic / blood / lymphoma malignant
# [28] = systemic / pathology microscopic / blood / lymphoma malignant + systemic / in life observation / body weight / body weight
# [29] = systemic / in life observation / body weight / body weight gain
# [30] = systemic / in life observation / body weight / body weight gain + systemic / in life observation / mortality / mortality + systemic / …
# [31] = systemic / in life observation / clinical signs / defecation (diarrhea)
# [32] = systemic / in life observation / clinical signs / defecation (diarrhea) + systemic / in life observation / clinical signs / headflicking + …
# [33] = group: offspring, systemic / in life observation / body weight / offspring (pup) weight + systemic / in life observation / body weight / offspring (pup) …
# [34] = group: parental, systemic / in life observation / body weight / body weight + systemic / in life observation / body weight / body weight gain
# [35] = group: reproductive, reproductive / offspring survival early / litter size / litter size + reproductive / offspring survival early / birth index / live birth …
# [36] = systemic / clinical chemistry / aminopyrine-n-demethylase / aminopyrine-n-demethylase + systemic / in life observation / body weight / body …
# [37] = group: developmental, developmental / developmental malformation / bone / [other] + developmental / developmental malformation / bone / unossified
# [38] = group: maternal, systemic / in life observation / body weight / body weight gain + systemic / in life observation / clinical signs / nasal discharge + …
# [39] = systemic / organ weight / liver / absolute + systemic / organ weight / liver / relative to body weight
# [40] = systemic / in life observation / body weight / body weight + systemic / in life observation / body weight / body weight gain
# [41] = systemic / in life observation / body weight / body weight + systemic / in life observation / body weight / body weight gain + systemic / …
# [42] = group: cholinesterase, cholinesterase / cholinesterase / cholinesterase / brain cholinesterase (che) + cholinesterase / cholinesterase / cholinesterase / …
# [43] = group: systemic, systemic / in life observation / body weight / body weight + systemic / in life observation / clinical signs / abnormal gait + systemic / in…
# [44] = group: cholinesterase, cholinesterase / cholinesterase / cholinesterase / brain cholinesterase (che)
# [45] = group: cholinesterase, cholinesterase / cholinesterase / cholinesterase / brain cholinesterase (che) + cholinesterase / cholinesterase / cholinesterase / plasma …
# [46] = group: systemic, systemic / in life observation / body weight / body weight + systemic / in life observation / body weight / body weight gain + systemic / in…
# [47] = group: systemic, systemic / in life observation / body weight / body weight gain
# [48] = group: maternal, systemic / in life observation / body weight / body weight gain + systemic / in life observation / clinical signs / tremors + systemic / in …
# [49] = group: offspring, systemic / in life observation / body weight / offspring (pup) weight
# [50] = group: offspring, systemic / in life observation / body weight / offspring (pup) weight + developmental / offspring survival late / [other] / [other] + …
# [51] = group: parental, systemic / in life observation / body weight / body weight + systemic / in life observation / body weight / body weight gain + systemic / in…
structure (smiles),measurement,setting,value
"Cc1ccc(C)c(C)c1 [1,2,4-Trimethylbenzene]",LEL,rat [1]; [25],600 ppm
same,LOAEL,rat [1]; [25],> 600 ppm
same,NEL,rat [1]; [25],300 ppm
same,NOAEL,rat [1]; [25],≥ 600 ppm
same,LEL,rat [1]; [26],600 ppm
same,LOAEL,rat [1]; [26],> 600 ppm
same,NEL,rat [1]; [26],300 ppm
same,NOAEL,rat [1]; [26],≥ 600 ppm
same,LEL,rat [2],25 ppm
same,LOAEL,rat [2],> 250 ppm
same,NEL,rat [2],< 25 ppm
same,NOAEL,rat [2],≥ 250 ppm
O=C1CCCCC1 [Cyclohexanone],LEL,mouse [3]; [27],867 mg/kg/day
same,NEL,mouse [3]; [27],< 867 mg/kg/day
same,LOAEL,mouse [3]; [28],> 3330 mg/kg/day
same,NOAEL,mouse [3]; [28],≥ 3330 mg/kg/day
same,LEL,mouse [4]; [29],3330 mg/kg/day
same,LOAEL,mouse [4]; [30],> 6270 mg/kg/day
same,NEL,mouse [4]; [30],1730 mg/kg/day
same,NOAEL,mouse [4]; [30],≥ 6270 mg/kg/day
same,LEL,rat [5],325 mg/kg/day
same,LOAEL,rat [5],> 325 mg/kg/day
same,NEL,rat [5],235 mg/kg/day
same,NOAEL,rat [5],≥ 325 mg/kg/day
same,LEL,rat [6],325 mg/kg/day
same,LOAEL,rat [6],> 325 mg/kg/day
same,NEL,rat [6],165 mg/kg/day
same,NOAEL,rat [6],≥ 325 mg/kg/day
same,LEL,rat [7],100 mg/kg/day
same,LOAEL,rat [7],> 100 mg/kg/day
same,NEL,rat [7],50 mg/kg/day
same,NOAEL,rat [7],≥ 100 mg/kg/day
CC1(C)C(C=C(Cl)C(F)(F)F)C1C(=O)OC(C#N)c1cccc(Oc2ccccc2)c1 (stereo not drawn) [Cyhalothrin],NEL,mouse [8]; systemic / in life observation / body weight / body weight + systemic / in life observation / body weight / body weight gain + systemic / in…,3 mg/kg/day
same,NOAEL,mouse [8]; systemic / in life observation / clinical signs / hunched posture + systemic / in life observation / clinical signs / piloerection,15 mg/kg/day
same,LOAEL,mouse [8]; systemic / in life observation / clinical signs / hunched posture + systemic / in life observation / clinical signs / piloerection + …,75 mg/kg/day
same,LEL,mouse [8]; systemic / in life observation / clinical signs / piloerection,15 mg/kg/day
same,LEL,dog [9]; [31],2.5 mg/kg/day
same,LOAEL,dog [9]; [31],2.5 mg/kg/day
same,NEL,dog [9]; [32],1 mg/kg/day
same,NOAEL,dog [9]; [32],1 mg/kg/day
same,LEL,rat [10]; [33],1.5 mg/kg/day
same,LOAEL,rat [10]; [33],5 mg/kg/day
same,NEL,rat [10]; [33],0.5 mg/kg/day
same,NOAEL,rat [10]; [33],1.5 mg/kg/day
same,LEL,rat [10]; [34],1.5 mg/kg/day
same,LOAEL,rat [10]; [34],5 mg/kg/day
same,NEL,rat [10]; [34],0.5 mg/kg/day
same,NOAEL,rat [10]; [34],1.5 mg/kg/day
same,NEL,"rat [10]; group: reproductive, reproductive / offspring survival early / litter size / litter size",1.5 mg/kg/day
same,LEL,rat [10]; [35],5 mg/kg/day
same,LOAEL,rat [10]; [35],> 5 mg/kg/day
same,NOAEL,rat [10]; [35],≥ 5 mg/kg/day
same,LEL,rat [11],12.5 mg/kg/day
same,LOAEL,rat [11],12.5 mg/kg/day
same,NEL,rat [11],2.5 mg/kg/day
same,NOAEL,rat [11],2.5 mg/kg/day
same,LEL,rat [12]; systemic / clinical chemistry / aminopyrine-n-demethylase / aminopyrine-n-demethylase,2.5 mg/kg/day
same,NEL,rat [12]; [36],0.5 mg/kg/day
same,NOAEL,rat [12]; [36],2.5 mg/kg/day
same,LOAEL,rat [12]; [29],12.5 mg/kg/day
Nc1nc(N)nc(NC2CC2)n1 [Cyromazine],LEL,rat [13]; [37],600 mg/kg/day
same,LOAEL,rat [13]; [37],600 mg/kg/day
same,NEL,rat [13]; [37],300 mg/kg/day
same,NOAEL,rat [13]; [37],300 mg/kg/day
same,LOAEL,"rat [13]; group: maternal, systemic / in life observation / body weight / body weight gain + systemic / in life observation / clinical signs / nasal discharge",300 mg/kg/day
same,LEL,rat [13]; [38],300 mg/kg/day
same,NEL,rat [13]; [38],100 mg/kg/day
same,NOAEL,rat [13]; [38],100 mg/kg/day
same,LEL,rat [14]; [39],3 mg/kg/day
same,LOAEL,rat [14]; [39],30 mg/kg/day
same,NEL,rat [14]; [39],< 3 mg/kg/day
same,NOAEL,rat [14]; systemic / organ weight / liver / absolute + systemic / organ weight / liver / relative to body weight + systemic / clinical chemistry / …,3 mg/kg/day
same,LEL,rat [15],15 mg/kg/day
same,LOAEL,rat [15],15 mg/kg/day
same,NEL,rat [15],1.5 mg/kg/day
same,NOAEL,rat [15],1.5 mg/kg/day
same,LOAEL,dog [16]; systemic / in life observation / body weight / body weight + systemic / hematology / hematocrit (hct) / hematocrit (hct) + systemic / …,75 mg/kg/day
same,LEL,dog [16]; [40],0.75 mg/kg/day
same,NEL,dog [16]; [40],< 0.75 mg/kg/day
same,NOAEL,dog [16]; [41],7.5 mg/kg/day
same,LOAEL,mouse [17]; systemic / in life observation / body weight / body weight,150 mg/kg/day
same,LEL,mouse [17]; [40],150 mg/kg/day
same,NEL,mouse [17]; [41],7.5 mg/kg/day
same,NOAEL,mouse [17]; [41],7.5 mg/kg/day
CCCCCC(N)=O [Hexanamide],LEL,mouse [18],1500 mg/kg/day
same,LOAEL,mouse [18],> 1500 mg/kg/day
same,NEL,mouse [18],< 1500 mg/kg/day
same,NOAEL,mouse [18],≥ 1500 mg/kg/day
same,LEL,rat [19],750 mg/kg/day
same,LOAEL,rat [19],> 750 mg/kg/day
same,NEL,rat [19],< 750 mg/kg/day
same,NOAEL,rat [19],≥ 750 mg/kg/day
CNC(=O)ON=C(SC)C(=O)N(C)C [Oxamyl],LEL,rat [20]; [42],14.9 mg/kg/day
same,LOAEL,rat [20]; [42],14.9 mg/kg/day
same,NEL,rat [20]; [42],2.1 mg/kg/day
same,NOAEL,rat [20]; [42],2.1 mg/kg/day
same,LEL,rat [20]; [43],14.9 mg/kg/day
same,LOAEL,rat [20]; [43],14.9 mg/kg/day
same,NEL,rat [20]; [43],2.1 mg/kg/day
same,NOAEL,rat [20]; [43],2.1 mg/kg/day
same,LEL,mouse [21],7.5 mg/kg/day
same,LOAEL,mouse [21],7.5 mg/kg/day
same,NEL,mouse [21],3.75 mg/kg/day
same,NOAEL,mouse [21],3.75 mg/kg/day
same,LOAEL,dog [22]; [44],1.56 mg/kg/day
same,NOAEL,dog [22]; [44],< 1.56 mg/kg/day
same,LEL,dog [22]; [45],1.56 mg/kg/day
same,NEL,dog [22]; [45],< 1.56 mg/kg/day
same,LOAEL,dog [22]; [46],4.5 mg/kg/day
same,NOAEL,dog [22]; [46],1.46 mg/kg/day
same,LEL,dog [22]; [47],1.56 mg/kg/day
same,NEL,dog [22]; [47],< 1.56 mg/kg/day
same,LEL,rat [23]; [25],0.5 mg/kg/day
same,LOAEL,rat [23]; [25],0.5 mg/kg/day
same,NEL,rat [23]; [25],0.2 mg/kg/day
same,NOAEL,rat [23]; [25],0.2 mg/kg/day
same,LEL,rat [23]; [48],0.8 mg/kg/day
same,LOAEL,rat [23]; [48],0.8 mg/kg/day
same,NEL,rat [23]; [48],0.5 mg/kg/day
same,NOAEL,rat [23]; [48],0.5 mg/kg/day
same,LEL,rat [24]; [49],5.2 mg/kg/day
same,LOAEL,rat [24]; [49],5.2 mg/kg/day
same,NEL,rat [24]; [50],1.7 mg/kg/day
same,NOAEL,rat [24]; [50],1.7 mg/kg/day
same,LEL,rat [24]; [51],5.2 mg/kg/day
same,LOAEL,rat [24]; [51],5.2 mg/kg/day
same,NEL,rat [24]; [51],1.7 mg/kg/day
same,NOAEL,rat [24]; [51],1.7 mg/kg/day
